Here are results for one compound from paper PMC3832616, “Crystal Structure of the Pleckstrin Homology Domain from the Ceramide Transfer Protein: Implications for Conformational Change upon Ligand Binding” (PLoS ONE, 2013).

The target in this assay is T1, Ceramide transfer protein (CERT) (Homo sapiens, UniProt Q9Y5P4).
T1 construct: gene CERT1; PH domain, residues 20–122 (three extra amino acids G-E-F before residue 20)
T1 sequence (Q9Y5P4 20-122): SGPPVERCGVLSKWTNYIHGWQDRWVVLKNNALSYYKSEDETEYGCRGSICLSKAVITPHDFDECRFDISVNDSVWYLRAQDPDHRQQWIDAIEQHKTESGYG
The experiment in a line: […]-1H HSQC NMR chemical shift titration, global fit. It is filed as binding.

Broadly, the Kd is the free concentration of one partner at which half of the binding sites on the other are occupied at equilibrium, for simple one-to-one binding.

Molecules are shown by their SMILES.

Turning to `CCCCCC(=O)OC[C@H](COP(=O)(O)O[C@H]1[C@H](O)[C@@H](O)[C@H](OP(=O)(O)O)[C@@H](O)[C@H]1O)OC(=O)CCCCC` [diC6-PtdIns(4)P], the Kd was 470 ± 14 µM.
